Consider 2 compounds from patent publication US20190282550A1, “METHOD OF TREATMENT” (The University of Melbourne, priority 2016, published 2019).

Molecules are shown by their SMILES.

In data set [1] the test system is HTR8 cells. Kind of data set: FACs analysis of cell cycle progression. To be noted: 1 μM and 10 μM. The format is cell-based. The procedure:
The effect of Vinorelbine on cell cycle progression in HTR8 cells was assessed using FACs analysis (FIGS. 8A through G). […] The proportion of cells in G1, S and G2 is graphically represented in n=3 replicates (D).

Data set [2] deals with primary first trimester placenta cells. Put plainly: MTS cell viability assay, primary first trimester placenta cells (FIG. 1). The format is cell-based, human. The procedure: For in vitro experiments, methotrexate and vinorelbine are administered at different doses (from 10 nM to 100,000 nM). When used, gefitinib is combined with methotrexate at 8 μM. Cells/tissues are treated for 24 hours and 48 hours. Methodology for the following standard techniques are: Tissue culture (Nilsson et al. (2013) Obstet Gynecol 122(4):737-44), RNA, qPCR, immunohistochemistry (Nilsson et al. (2013) supra; Onda et al. (2015) Hypertension:10.1161/hyptertensionaha.114.04781; Kaitu'u-Lino et al. Pregnancy Hypertension: An International Journal of Women's Cardiovascular Health 2014 placenta explants (Brownfoot et al. (2015) Hypertension), FACs sorting (Nilsson et al. (2013) supra), trophoblast purification ((Nilsson et al. (2013) supra; Onda et al. (2015) supra; Kaitu'u Lino et al. (2014) supra) and western blots (Onda et al. (2015) supra).
First trimester placenta tissue are obtained from women who are undergoing a termination of pregnancy. Placenta cells are purified as previously described (Nilsson et al. (2013) supra). They are treated with different doses (10-100,000 nM) of vinorelbine, methotrexate, methotrexate+gefitinib, gefitinib alone (and vehicle control). Cell viability is measured by MTS assay (see FIG. 1). To compare the relative potencies, the EC50 is calculated for the drugs (dose that induces 50% cell death).
VB doses were 10,000 times lower than MXT.

In data set [3] the test system is first trimester placenta explants. Put plainly: First trimester placenta explants, M30 cytodeath immunohistochemistry. The format is cell-based, human. Conditions: compared to methotrexate±gefitinib. The procedure: First trimester placenta explants are prepared and treated with the same drugs as above. After culture cells are fixed in paraformadehyde and immunohistochemistry staining performed with an M30 cytodeath antibody (detects apoptotic cell death). hCG secretion in to the cell culture media will be measured.

In data set [4] the test system is HTR8 cells.
The next data set has as its system human Fallopian tubes. Kind of data set: Human Fallopian tubes treated ex vivo, western blot of apoptotic markers.
Another data set concerns placenta cells. Kind of data set: Apoptosis versus necrosis in placenta cells. The format is cell-based. The procedure:
Apoptosis incites less of an inflammatory response that may otherwise injure local tissues. In this Example, the number of apoptotic cells after treatment with vinorelbine is assessed.

The conditions of data set [5]: oral, 60 mg/m^2 once a week; cited from earlier work.
The test system of the next data set is placenta cells (JEG3). Kind of data set: Mouse xenograft model, placenta cells (JEG3) grafted subcutaneously.
Data set [6] concerns HTR8. Put plainly: xCELLigence placenta cell proliferation. The format is cell-based. Conditions: for proliferation at 48 h post plating: compared to control. As to the method: The effect of vinorelbine on placenta cell (HTR8) proliferation was assessed using xCELLigence (C).
The nature of data set [7]: Mouse fertility breeding experiments. To be noted: 5 mg/kg intravenous to female mice 4 weeks prior to breeding.
Protocol: Vinorelbine is administered by tail vein injection to wild type swiss mice. The drug (or vehicle controls) is administered by tail vein twice weekly (i.e. approximately mirroring the frequency of dosing for the xenograft studies). The middle dose that was effective in regressing tumor size (2.5 mg/kg) is to be used. After one month the mice are paired for breeding. It is proposed to sacrifice mice at about day 19 of pregnancy.
Parameters measured include 1) Number of fetuses' and implantations sites; 2) fetal crown rump length; 3) fetal weight; 4) placenta weights.
Data set [8] has as its system HTR8. Kind of data set: MTS cell viability assay, HTR8 placenta cell line. The format is cell-based. As to the method: (§1) The ability for vinorelbine to reduce placenta cell viability was assessed in two placenta cell lines (A;HTR8, B; JEG3) using a MTS cell viability assay.
The subject of a further data set is JEG3. Kind of data set: MTS cell viability assay, JEG3 placenta cell line. The format is cell-based. As to the method:
as §1

[9] abbreviates: western blot densitometry, n=3 tubes.
Setting [10] is: increasing doses, intravenously, vs. vehicle.

Description for human Fallopian tubes: Fallopian tube cells are obtained from (non pregnant) women undergoing hysterectomy and explants prepared as previously published (Shaw et al. (2011) Am J Pathol 178(1):253-60). […] Investigators stain the explants with M30 antibody by immunohistochemistry (measures late apoptosis) and obtain tissue lysates and perform western blot to measure the following proteins involved in apoptosis (Elmore (2007) supra): Bcl-2, Bax, Bid and Bim and quantify by densiometric analysis.
Human Fallopian tubes were obtained at hysterectomy (from women of child-bearing age).

With `CCC1=C[C@@H]2CN(C1)Cc1c([nH]c3ccccc13)[C@@](C(=O)OC)(c1cc3c(cc1OC)N(C)[C@H]1[C@@](O)(C(=O)OC)[C@H](OC(C)=O)[C@]4(CC)C=CCN5CC[C@]31[C@@H]54)C2` [vinorelbine], in the data set on HTR8 cells [1], the cell cycle progression result is reported as “inhibits cell cycle progression, with cells arrested in the G2 phase of mitosis”. Further, in the data set with HTR8 cells [1] (compared to control, n=3 replicates), the “cells halted at G2” value is on record as “significantly more cells halted at G2”. In data set [2] (compared to methotrexate±gefitinib), the “inducing death of primary first trimester placenta cells” value is “significantly more effective in inducing death”. The “potency relative to methotrexate” value in [2] (placenta cell death) is 1,000 to 10,000 times. For the same compound, in data set [3], the “M30 staining of placenta explants” value was “more intense M30 staining of placenta explants at a lower doses”. In addition, in the data set on HTR8 cells [4], the “percentage of dead cells” value is listed as “No significant changes” and the “percentage of live HTR8 cells” value is “significantly reduced”. Moreover, the “percentage of apoptotic HTR8 cells” value in the data set on HTR8 cells [4] (Annexin V expression) is reported as “significantly increased”. In addition, the “markers of apoptosis in human Fallopian tubes” value in the data set with human Fallopian tubes (preliminary data) is “does not upregulate markers of apoptosis”. In the data set with human Fallopian tubes (setting [9]), the BAX protein expression entry is recorded as “no effect” and the “BCL 2 protein expression” value is reported as “no effect”. For the same compound, the “mode of placenta cell death” value with placenta cells was “mainly by apoptosis rather than necrosis”. Further, the neutropenia occurrence in [5] is recorded as 11%. For the same compound, in the data set with placenta cells (JEG3) (setting [10]), the “serum human chorionic gonadotropin (hCG) levels” value is “significantly reduced”, the “tumor volume over time” value was “dose dependently reduced tumor volume over time” and the tumor weight result is on record as “significantly reduced tumor weight”. For the same compound, the “regressing placenta cells in xenografted SCID mice” value with placenta cells (JEG3) (proposed, compared to methotrexate±gefitinib) is given as “more effective than methotrexate±gefitinib”. In addition, the “proliferation at 48 h post plating” value in the data set with HTR8 [6] was “proliferation was reduced at 1, 10 and 100 μM”. Besides, the HTR8 proliferation entry in the data set with HTR8 [6] (xCELLigence, over time) was “reduced HTR8 proliferation in a dose-dependent manner”. In addition, in [7], the “crown to rump length” value is “did not alter”, the fetal weight result is “did not alter”, the fetal/placenta ratio result is reported as “did not alter” and the litter size entry is recorded as “did not alter”. For the same compound, in the data set with HTR8 [8], the cell viability result is on record as “significant dose dependent reduction in cell viability”. The cell viability result in the data set with JEG3 is “significant dose dependent reduction in cell viability”.

Take `CN(Cc1cnc2nc(N)nc(N)c2n1)c1ccc(C(=O)N[C@@H](CCC(=O)O)C(=O)O)cc1` [methotrexate]: the “proliferation at 48 h post plating” value in the data set with HTR8 [6] is listed as “no significant effect”.
